Reference: US8722629B2, “Auristatin derivatives and use thereof” (Seattle Genetics, Inc., priority 2010, dated 2014)
Structures can show the parent of a compound that is named as a salt. Starred links: 1 amine or outer side, 2 acyl side, 3 side chain; linkers in the order of their positions; H or OH if unused. Non-standard residues stand in square brackets, D forms with d. Residues, ends and D or L forms follow the SMILES beside them. *: point of attachment. NMeVal(N-(CH2)3COOH) = CC(C)[C@@H](C(=O)*)N(C)CCCC(=O)O; Dolaproine = CO[C@@H]([C@@H]1CCCN1)[C@@H](C)C(=O)O; X4 = O=C([C@]1(N[*:1])C[C@H]1c1ccccc1)[*:2]; Dil = CC[C@H](C)[C@H](NC)[C@@H](CC(=O)O)OC; X7 = COC(=O)CCCN(C)[C@H](C(=O)*)C(C)C; αMeF = C[C@](N)(Cc1ccccc1)C(=O)O; X5 = CC(C)[C@@H](C(=O)*)N(C)CCO; Oxazinan2yl(1,2) = C1CCN(*)OC1; NMeV = CN[C@H](C(=O)O)C(C)C; X3 = c1ccc2c(c1)CON(*)C2; X6 = C1=CC2CCC1ON2*

Key:
[1] = test system: human colon carcinoma cell line HT29 wt (wild type); assay: Antiproliferative effect on the HT29 wt cell line (MTT assay); format: cell-based; details: 10% FCS, incubation 48 h to 96 h
Protocol: B-2. Determination of the Antiproliferative Effect on the HT29 Wt Cell Line:
A defined cell number of the human colon carcinoma cell line HT29 wt (wild type) was sown in a 96-well microtiter plate in complete medium (10% FCS-RPMI) (2500 cells/well) and incubated at 37° C./5% CO2 overnight. After 18 h, the sowing medium was replaced by fresh medium with 10% FCS. Treatment was initiated by addition of the respective test substance. From the substances to be investigated, dose/activity curves in a concentration range of from 10^−5 M to 10^−14 M (1:10-dilution series) were determined. The chosen incubation times were from 48 h to 96 h. Pro-liferation was determined with the aid of the MTT assays (ATCC, Manassas, Va., USA, catalogue No. 30-1010K). After the incubation time, the MTT reagent was incubated with the cells for 4 h, and the cells were subsequently lysed by adding the detergent overnight. The dye formed was detected at 570 nm. Proliferation of cells which had not been treated with test substance, but had otherwise been treated identically, was defined as 100%. The data obtained from this test are triple determinations, and at least two independent experiments were carried out.

[2] = test system: human renal cancer cell line 786-0; assay: Antiproliferative effect on the 786-0 RCC cell line (MTT assay); format: cell-based; details: incubation 48 h to 96 h
Protocol: B-1. Determination of the Antiproliferative Effect on the 786-0 RCC Cell Line:
A defined cell number of the human renal cancer cell line 786-0 was sown in a 96-well microtiter plate in complete medium (2500 or 7000 cells/well) and incubated at 37° C./5% CO2 overnight. After 18 h, the sowing medium was replaced by serum-free medium or medium with 2% FCS. Treatment was initiated by addition of the respective test substance in varying concentration (10^−5 M to […]). The chosen incubation times were from 48 h to 96 h. Proliferation was determined with the aid of the MTT assays (ATCC, Manassas, Va., USA, catalogue No. 30-1010K). After the incubation time, the MTT reagent was incubated with the cells for 4 h, and the cells were subsequently lysed by adding the detergent overnight. The dye formed was detected at 570 nm. […] The data obtained from this test are triple determinations, and at least two independent experiments were carried out.

[3] = Plasma stability in vitro, rat plasma; format: in vitro ADME; details: male, Wistar, rat plasma (Li heparin), 37° C., Method A (HPLC)
Protocol: B-4. Determination of the Plasma Stability in vitro:
1 mg of the test substance in question was dissolved in 0.5 ml of acetonitrile/DMSO (9:1). From this solution, 20 μl were removed and added to 1 ml of rat or human plasma at 37° C. (plasma of male Wistar rats with Li heparin from Harlan & Winkelmann or fresh human leukocyte-depleted plasma originating from a whole blood sample). From this plasma solution, which was shaken vigorously, 100 μl aliquots were removed immediately after addition of the sample (initial value as reference) and then after 5, 10, 30, 60, 120, 180 and 240 minutes and optionally after 24 hours and added to 300 μl of acetonitrile. The precipitated plasma proteins were removed by centrifugation at 5000 rpm for 10 minutes, and 30 μl of the supernatant were analysed by HPLC for its content of unmodified test substance. Quantification was via the area percentages of the corresponding peaks.
HPLC Method for Rat Plasma:
Instrument: Agilent 1200 with DAD, binary pump, autosampler, column oven and thermostat; column: Kromasil 100 C18, 250 mm×4 mm, […]; column temperature: 45° C.; mobile phase A: 5 ml of perchloric acid/1 of water, mobile phase B: acetonitrile; gradient: 0-8 min 98% A, 2% B; 8-15 min 56% A, 44% B; […] 10% A, 90% B; 20-21 min 10% A, 90% B; […] 98% A, 2% B; […] 98% A, 2% B; flow rate: 2 ml/min; UV detection: 220 nm.
The test substance was incubated in rat or human plasma at 37° C. over a period of 5 h with gentle stirring. At different points in time (0, 2, 5, 10, 20, 30, 60, 120, 180 and 300 minutes), a 100 μl aliquot was removed. Following addition of internal standard (10 μl), the proteins were precipitated by addition of 200 μl of acetonitrile and the mixture was centrifuged in an Eppendorf centrifuge for 5 minutes. After addition of 150 μl of ammonium acetate buffer pH 3 to 150 μl of the supernatant, the content of unmodified test substance was analysed by LC/MSMS.

[4] = Homo sapiens, 786-0, 786-0 cells
[5] = Homo sapiens, HT-29, HT29 wt cells

Row | Compound | IC50 [2, 4] | IC50 [1, 5] | further results
1 | CC[C@H](C)[C@@H]([C@@H](CC(=O)N1CCC[C@H]1[C@H](OC)[C@@H](C)C(=O)N[C@@H](Cc1ccccc1)C(=O)O)OC)N(C)C(=O)[C@@H](NC(=O)[C@@H](NC)C(C)C)C(C)C [MMAF, Monomethylauristatin F, reference compound] (H-[NMeV]V[Dil][Dolaproine]F-OH) |  |  | IC50 ([1]; HT29 wt cells): 10 nM; IC50 ([2]; 786-0 cells): 260 nM
2 | CC[C@H](C)[C@@H]([C@@H](CC(=O)N1CCC[C@H]1[C@H](OC)[C@@H](C)C(=O)N[C@@]1(C(=O)N2CCCCO2)C[C@@H]1c1ccccc1)OC)N(C)C(=O)[C@@H](NC(=O)[C@H](C(C)C)N(C)CCCCCC(=O)O)C(C)C [Example 26, N-(5-Carboxypentyl)-N-methyl-L-valyl-N-[(3R,4S,5S)-3-methoxy-1-{(2S)-2-[(1R,2R)-1-methoxy-2-methyl-3-{[(1S,2R)-1-(1,2-oxazinan-2-ylcarbonyl)-2-phenylcyclopropyl]amino}-3-oxopropyl]-pyrrolidin-1-yl}-5-methyl-1-oxoheptan-4-yl]-N-methyl-L-valinamide] | 18 nM |  | 
3 | CC[C@H](C)[C@@H]([C@@H](CC(=O)N1CCC[C@H]1[C@H](OC)[C@@H](C)C(=O)N[C@@H](Cc1ccccc1)C(=O)N1CCCCO1)OC)N(C)C(=O)[C@@H](NC(=O)[C@H](C(C)C)N(C)CCO)C(C)C [Example 2, N-(2-Hydroxyethyl)-N-methyl-L-valyl-N-[(3R,4S,5S)-3-methoxy-1-{(2S)-2-[(1R,2R)-1-methoxy-2-methyl-3-{[(2S)-1-(1,2-oxazinan-2-yl)-1-oxo-3-phenylpropan-2-yl]amino}-3-oxopropyl]pyrrolidin-1-yl}-5-methyl-1-oxoheptan-4-yl]-N-methyl-L-valinamide] (X5-V[Dil][Dolaproine]F-{Oxazinan2yl(1,2)}) |  | 0.5 nM | 
4 | CC[C@H](C)[C@@H]([C@@H](CC(=O)N1CCC[C@H]1[C@H](OC)[C@@H](C)C(=O)N[C@@](C)(Cc1ccccc1)C(=O)N1CCCCO1)OC)N(C)C(=O)[C@@H](NC(=O)[C@@H](NC)C(C)C)C(C)C [Example 22, N-Methyl-L-valyl-N-[(3R,4S,5S)-3-methoxy-1-{(2S)-2-[(1R,2R)-1-methoxy-2-methyl-3-{[(2S)-2-methyl-1-(1,2-oxazinan-2-yl)-1-oxo-3-phenylpropan-2-yl]amino}-3-oxopropyl]pyrrolidin-1-yl}-5-methyl-1-oxoheptan-4-yl]-N-methyl-L-valinamide, trifluoroacetic acid salt] (H-[NMeV]V[Dil][Dolaproine][αMeF]-{Oxazinan2yl(1,2)}) |  |  | half-life at 39.2 µg/ml [3]: 2 h
5 | CC[C@H](C)[C@@H]([C@@H](CC(=O)N1CCC[C@H]1[C@H](OC)[C@@H](C)C(=O)N[C@@H](Cc1c[nH]c2ccccc12)C(=O)N1CCCCO1)OC)N(C)C(=O)[C@@H](NC(=O)[C@@H](NC)C(C)C)C(C)C [Example 9, N-Methyl-L-valyl-N-[(3R,4S,5S)-1-{(2S)-2-[(1R,2R)-3-{[(2S)-3-(1H-indol-3-yl)-1-(1,2-oxazinan-2-yl)-1-oxopropan-2-yl]amino}-1-methoxy-2-methyl-3-oxopropyl]pyrrolidin-1-yl}-3-methoxy-5-methyl-1-oxoheptan-4-yl]-N-methyl-L-valinamide, trifluoroacetic acid salt] (H-[NMeV]V[Dil][Dolaproine]W-{Oxazinan2yl(1,2)}) | 3 nM | 1.4 nM | 
6 | CC[C@H](C)[C@@H]([C@@H](CC(=O)N1CCC[C@H]1[C@H](OC)[C@@H](C)C(=O)N[C@@H](Cc1ccccc1)C(=O)N1CCCCO1)OC)N(C)C(=O)[C@@H](NC(=O)[C@H](C(C)C)N(C)CCCC(=O)OC)C(C)C [Example 29, N-(4-Methoxy-4-oxobutyl)-N-methyl-L-valyl-N-[(3R,4S,5S)-3-methoxy-1-{(2S)-2-[(1R,2R)-1-methoxy-2-methyl-3-{[(2S)-1-(1,2-oxazinan-2-yl)-1-oxo-3-phenylpropan-2-yl]amino}-3-oxopropyl]pyrrolidin-1-yl}-5-methyl-1-oxoheptan-4-yl]-N-methyl-L-valinamide] (X7-V[Dil][Dolaproine]F-{Oxazinan2yl(1,2)}) |  | 0.1 nM | 
7 | CC[C@H](C)[C@@H]([C@@H](CC(=O)N1CCC[C@H]1[C@H](OC)[C@@H](C)C(=O)N[C@@H](Cc1ccccc1)C(=O)N1CCCCO1)OC)N(C)C(=O)[C@@H](NC(=O)[C@H](C(C)C)N(C)CCCC(=O)O)C(C)C [Example 24, N-(3-Carboxypropyl)-N-methyl-L-valyl-N-[(3R,4S,5S)-3-methoxy-1-{(2S)-2-[(1R,2R)-1-methoxy-2-methyl-3-{[(2S)-1-(1,2-oxazinan-2-yl)-1-oxo-3-phenylpropan-2-yl]amino}-3-oxopropyl]-pyrrolidin-1-yl}-5-methyl-1-oxoheptan-4-yl]-N-methyl-L-valinamide] ({NMeVal(N-(CH2)3COOH)}-V[Dil][Dolaproine]F-{Oxazinan2yl(1,2)}) | 5 nM | 1.5 nM | 
8 | CC[C@H](C)[C@@H]([C@@H](CC(=O)N1CCC[C@H]1[C@H](OC)[C@@H](C)C(=O)N[C@@H](Cc1ccccc1)C(=O)N1Cc2ccccc2CO1)OC)N(C)C(=O)[C@@H](NC(=O)[C@@H](NC)C(C)C)C(C)C [Example 8, N-Methyl-L-valyl-N-[(3R,4S,5S)-1-{(2S)-2-[(1R,2R)-3-{[(2S)-1-(1,4-dihydro-3H-2,3-benzoxazin-3-yl)-1-oxo-3-phenylpropan-2-yl]amino}-1-methoxy-2-methyl-3-oxopropyl]pyrrolidin-1-yl}-3-methoxy-5-methyl-1-oxoheptan-4-yl]-N-methyl-L-valinamide, trifluoroacetic acid salt] (H-[NMeV]V[Dil][Dolaproine]F-X3) | 2.4 nM |  | 
9 | CC[C@H](C)[C@@H]([C@@H](CC(=O)N1CCC[C@H]1[C@H](OC)[C@@H](C)C(=O)N[C@@]1(C(=O)N2CCCCO2)C[C@H]1c1ccccc1)OC)N(C)C(=O)[C@@H](NC(=O)[C@@H](NC)C(C)C)C(C)C [Example 16, N-Methyl-L-valyl-N-[(3R,4S,5S)-3-methoxy-1-{(2S)-2-[(1R,2R)-1-methoxy-2-methyl-3-{[(1S,2S)-1-(1,2-oxazinan-2-ylcarbonyl)-2-phenylcyclopropyl]amino}-3-oxopropyl]pyrrolidin-1-yl}-5-methyl-1-oxoheptan-4-yl]-N-methyl-L-valinamide, trifluoroacetic acid salt] (H-[NMeV]V[Dil][Dolaproine][X4]-{Oxazinan2yl(1,2)}) | 8 nM |  | half-life at 39.2 µg/ml [3]: 0.75 h
10 | CC[C@H](C)[C@@H]([C@@H](CC(=O)N1CCC[C@H]1[C@H](OC)[C@@H](C)C(=O)N[C@@H](Cc1ccccc1)C(=O)N1OC2C=CC1CC2)OC)N(C)C(=O)[C@@H](NC(=O)[C@@H](NC)C(C)C)C(C)C (stereo partly drawn) [Example 6, N-Methyl-L-valyl-N-[(3R,4S,5S)-3-methoxy-1-{(2S)-2-[(1R,2R)-1-methoxy-2-methyl-3-{[(2S)-1-(2-oxa-3-azabicyclo[2.2.2]oct-5-en-3-yl)-1-oxo-3-phenylpropan-2-yl]amino}-3-oxopropyl]pyrrolidin-1-yl}-5-methyl-1-oxoheptan-4-yl]-N-methyl-L-valinamide, trifluoroacetic acid salt] (H-[NMeV]V[Dil][Dolaproine]F-X6) | 0.5 nM |  | 
